Assay results published in US20040077674A1, “Mappicine analogs, intermediates in the synthesis of mappicine analogs and methods of synthesis of mappicine analogs” (priority 2002, published 2004).

Assays:
[1] = molecular target: T1, RNA-dependent DNA polymerase activity of HIV reverse transcriptase (Human immunodeficiency virus type 1 group M subtype B, UniProt P03366); experiment: RNA-dependent DNA polymerase activity assay of HIV reverse transcriptase; type: biochemical, HIV-1; conditions: 10 μM inhibitor concentration, activity in presence / in absence of analog x 100
T1 construct: made in house
Method: In separate representative assays, mappicine analogs were tested for their ability to inhibit the RNA-dependent DNA polymerase activity of HIV reverse transcriptase and for their ability to inhibit the RNase H activity of HIV reverse transcriptase. The assay for RNA-dependent DNA polymerase activity is discussed in Borkow, G. et al., “Inhibition of the Ribonuclease H and DNA Polymerase Activities of HIV-1 Reverse Transcriptase by N-(4-tert-Butylbenzoyl)-2-hydroxy-1-naphthaldehyde Hydrazone,” Biochemistry 1997, 36, 3179-3185, a copy of which is attached hereto and the disclosure of which is incorporated herein by reference. Assays were carried out in the absence and in the presence of mappicine analogs (10 μM final concentration). The results are reported as % residual activity, which is the RNA-dependent DNA polymerase activity of the enzyme in the presence of the mappicine analog divided by the RNA-dependent activity of the enzyme in the absence of the mappicine analog, multiplied by 100.

[2] = molecular target: T2, RNase H activity of HIV reverse transcriptase (Human immunodeficiency virus type 1 group M subtype B, UniProt P03366); experiment: Fluorescence (FRET)-based RNase H assay of HIV reverse transcriptase; type: biochemical, HIV-1; conditions: for % inhibition of RNase H at 20 μM: 20 μM inhibitor concentration
T2 construct: 2.5 nM of the p51/p66 RT heterodimer in the assay; made in house
Method: Recently, a fluorescence-based assay to perform screens in search of HIV RNase H inhibitors has been developed. The assay, which is carried out in 96-well microplates and is adaptable to robotics, is the first high-throughput screen for RNase H and is described in further detail in the Experimental section. HIV-1 RT and human RNase H were cloned, and thus comparative analysis of inhibitor action could be conducted simultaneously.
The assay for RNase H activity of HIV reverse transcriptase was the fluorescence-based assay described in detail in the Experimental section and discussed in U.S. Provisional Patent Application Serial No. 60/318,359. Assays were carried out in the absence and in the presence of mappicine analogs (10 μM or 20 μM final concentration). The results are reported as % residual activity, which is the RNase H activity of the enzyme in the presence of the mappicine analog divided by the RNase H activity of the enzyme in the absence of the mappicine analog, multiplied by 100. Alternatively, the results are reported as % inhibition, which is calculated as the ratio of the RNase H activity of the enzyme in the presence of the mappicine analog to the enzyme activity in the absence of the mappicine analog, multiplied by 100, and then subtracting this number from 100.
Assay for Ribonuclease H Activity Based on Fluorescence Resonance Energy Transfer (FRET)
Preparation of the Fluorophore-RNA/Quencher-DNA Hybrid Duplex Substrate.
The RNA/DNA hybrid duplex substrate for use in the assay comprises an RNA oligonucleotide of sequence 5′-GAU CUG AGC CUG GGA GCU-3′, modified at the 3′-end with Aminolink-2 and derivatized with fluorescein isothiocyanate, to provide a modified RNA oligonucleotide of the sequence 5′-GAU CUG AGC CUG GGA GCU-fluorescein-3′, annealed to a complementary DNA oligonucleotide of the sequence 5′-AGC TCC CAG GCT CAG ATC-3′ modified at the 5′-end with Aminolink-2 and derivatized with the FRET acceptor DABCYL succinimidyl ester, to provide a modified DNA oligonucleotide of the sequence 5′-DABCYL-AGC TCC CAG GCT CAG ATC-3′.
To prepare the 3′-fluorescein-RNA/5′-DABCYL-DNA hybrid duplex substrate, a known amount of 3′-fluorescein-RNA was dissolved in 20 mM Tris buffer (pH 8.0, 37° C.) to provide a final concentration of 5 μM. Two equivalents of the 5′-DABCYL-DNA oligonucleotide were added, and the mixture was heated to 90° C. for 5 min and cooled slowly to room temperature to allow duplex formation. The positioning of the fluorescein donor at the 3′-end of the RNA oligonucleotide and the DABCYL acceptor at the 5′-end of the DNA oligonucleotide provides a very close proximity of the donor and acceptor that results in a very intense quenching of the fluorescein emission in the intact RNA/DNA hybrid duplex substrate due to the spectral overlap of the fluorescence emission of fluorescein with the absorption spectrum of DABCYL. In addition, DABCYL is non-fluorescent, and thus cannot contribute any light emission. Both of these factors result in a very low background and provide a high signal-to-noise in the assay measurements. The ratio of the donor fluorescence in the absence and in the presence of its quencher is approximately fifteen-fold.
Microplate Assay Protocol for the Measurement of RNase H Activity Using the RNA/IDNA Hybrid Duplex Substrate.
Reaction assay mixtures contained 5 μl of a stock solution of 2.5 μM RNA/DNA hybrid duplex substrate added to 85 μl of assay buffer (50 mM Tris, pH 8.0, 37° C., containing 60 mM KCl and 2.5 mM MgCl2), prepared in the wells of a 96-well fluorescence microtiter plate, and warmed to 37° C. using the temperature control of the SpectraMax Gemini XS microplate spectrofluorometer (Molecular Devices). Reactions were started by the addition of 5 μl of a solution of recombinant HIV-1 reverse transcriptase (usually providing a final concentration of 2.5 nM of the p51/p66 RT heterodimer in the assay), and mixing using the automatic mixing function of the microplate spectrofluorometer. […]

[3] = 10 μM inhibitor concentration, activity in presence / in absence of analog x 100

Compound | Residual activity (%) Polymerase [1] [%] | Residual activity (%) RNase H [2, 3] [%] | also measured
CCCCCCc1c2c(nc3ccc(C)cc13)-c1cc(C(=O)CC)c(C)c(=O)n1C2 [5 (8Cακ)] | 31 | 92 | –
Cc1c(C(O)C(C)(C)C)cc2n(c1=O)Cc1c-2nc2ccccc2c1[Si](C)(C)C(C)(C)C (stereo not drawn) [5 (4Aβ)] | 71 | 101 | –
CCCCCCc1c2c(nc3ccc(F)cc13)-c1cc(C(=O)CC)c(C)c(=O)n1C2 [5 (8Bακ)] | 64 | 103 | –
CCCCCCc1c2c(nc3ccccc13)-c1cc(C(O)C(C)(C)C)c(C)c(=O)n1C2 (stereo not drawn) [5 (8Aβ)] | 103 | 91 | –
CCC(O)c1cc2n(c(=O)c1C)Cc1c-2nc2ccc(OC)cc2c1-c1ccccc1 (stereo not drawn) [5 (3Dα)] | 69 | 78 | –
Cc1ccc2nc3c(c([Si](C)(C)C(C)(C)C)c2c1)Cn1c-3cc(C(=O)CCC2CCCCC2)c(C)c1=O [5 (4Cδκ)] | 52 | 96 | –
COc1ccc2nc3c(c(-c4ccccc4)c2c1)Cn1c-3cc(C(=O)CCC2CCCCC2)c(C)c1=O [5 (3Dδκ)] | 81 | 97 | –
COc1ccc2nc3c(c([Si](C)(C)C)c2c1)Cn1c-3cc(C(O)Cc2ccccc2)c(C)c1=O (stereo not drawn) [5 (5Dε)] | 48 | 70 | –
Cc1c(C(O)CCC2CCCCC2)cc2n(c1=O)Cc1c-2nc2ccccc2c1-c1ccccc1 (stereo not drawn) [5 (3Aδ)] | 32 | 104 | –
Cc1c(C(O)CCC2CCCCC2)cc2n(c1=O)Cc1c-2nc2ccc(F)cc2c1-c1ccccc1 (stereo not drawn) [5 (3Bδ)] | 81 | 99 | –
CCCCCCc1c2c(nc3ccc(C)cc13)-c1cc(C(O)C(C)(C)C)c(C)c(=O)n1C2 (stereo not drawn) [5 (8Cβ)] | 111 | 93 | –
CCC(O)c1cc2n(c(=O)c1C)Cc1c-2nc2ccc(OC)cc2c1[Si](C)(C)C (stereo not drawn) [5 (5Dα)] | 88 | 78 | –
Cc1c(C(O)Cc2ccccc2)cc2n(c1=O)Cc1c-2nc2ccc(F)cc2c1[Si](C)(C)C(C)(C)C (stereo not drawn) [5 (4Bε)] | 61 | 89 | –
CCC(=O)c1cc2n(c(=O)c1C)Cc1c-2nc2ccc(F)cc2c1-c1ccccc1 [5 (3Bακ)] | 100 | 94 | –
Cc1ccc2nc3c(c(-c4ccccc4)c2c1)Cn1c-3cc(C(=O)CCC2CCCCC2)c(C)c1=O [5 (3Cδκ)] | 65 | 93 | –
Cc1c(C(=O)C(C)(C)C)cc2n(c1=O)Cc1c-2nc2ccc(F)cc2c1-c1ccccc1 [5 (3Bβκ)] | 61 | 95 | –
COc1ccc2nc3c(c([Si](C)(C)C)c2c1)Cn1c-3cc(C(O)C(C)(C)C)c(C)c1=O (stereo not drawn) [5 (5Dβ)] | 76 | 102 | –
CCCCCCc1c2c(nc3ccc(F)cc13)-c1cc(C(O)Cc3ccccc3)c(C)c(=O)n1C2 (stereo not drawn) [5 (8Bε)] | 92 | 84 | –

Compound | Residual activity (%) Polymerase [1] [%] | Residual activity (%) RNase H [2, 3] [%] | also measured
CCC(=O)c1cc2n(c(=O)c1C)Cc1c-2nc2ccccc2c1-c1ccccc1 [5 (3Aακ)] | 64 | 87 | –
CCC(O)c1cc2n(c(=O)c1C)Cc1c-2nc2ccccc2c1[Si](C)(C)C (stereo not drawn) [5 (5Aα)] | – | – | Residual activity (%) Polymerase ([1]; 10 µM): 32%; Residual activity (%) RNase H ([2]; 10 μM inhibitor concentration, activity in presence / in absence of analog x 100, 10 µM): 93%
CCC(O)c1cc2n(c(=O)c1C)Cc1c-2nc2ccc(C)cc2c1[Si](C)(C)C(C)(C)C (stereo not drawn) [5 (4Cα)] | 94 | 91 | –
Cc1c(C(O)CCC2CCCCC2)cc2n(c1=O)Cc1c-2nc2ccc(F)cc2c1[Si](C)(C)C(C)(C)C (stereo not drawn) [5 (4Bδ)] | 44 | 90 | –
CCC(O)c1cc2n(c(=O)c1C)Cc1c-2nc2ccc(N)cc2c1[Si](C)(C)C (stereo not drawn) [5 (AG 3M), 2-Amino-7-(1-hydroxypropyl)-8-methyl-12-trimethylsilanyl-1 1H-indolizino[1,2-b]quinolin-9-one] | – | – | remaining activity at 10 µM ([1]; read-out: Residual activity (%) Polymerase): 123%; remaining activity at 10 µM ([2]; 10 μM inhibitor concentration, activity in presence / in absence of analog x 100, read-out: Residual activity (%) RNase H): 63%
CCCCCCc1c2c(nc3ccc(OC)cc13)-c1cc(C(O)Cc3ccccc3)c(C)c(=O)n1C2 (stereo not drawn) [5 (8Dε)] | 73 | 82 | –
COc1ccc2nc3c(c(-c4ccccc4)c2c1)Cn1c-3cc(C(O)Cc2ccccc2)c(C)c1=O (stereo not drawn) [5 (3Dε)] | 61 | 79 | –
CCCCCCc1c2c(nc3ccccc13)-c1cc(C(O)CCC3CCCCC3)c(C)c(=O)n1C2 (stereo not drawn) [5 (8Aδ)] | 72 | 89 | –
Cc1ccc2nc3c(c([Si](C)(C)C(C)(C)C)c2c1)Cn1c-3cc(C(O)C(C)(C)C)c(C)c1=O (stereo not drawn) [5 (4Cβ)] | 67 | 94 | –
Cc1ccc2nc3c(c([Si](C)(C)C)c2c1)Cn1c-3cc(C(=O)C(C)(C)C)c(C)c1=O [5 (5Cβκ)] | 76 | 92 | –
COc1ccc2nc3c(c([Si](C)(C)C)c2c1)Cn1c-3cc(C(=O)CCC2CCCCC2)c(C)c1=O [5 (5Dδκ)] | 40 | 92 | –
COc1ccc2nc3c(c(-c4ccccc4)c2c1)Cn1c-3cc(C(=O)Cc2ccccc2)c(C)c1=O [5 (3Dεκ)] | 73 | 88 | –
Cc1c(C(O)CCC2CCCCC2)cc2n(c1=O)Cc1c-2nc2ccccc2c1[Si](C)(C)C(C)(C)C (stereo not drawn) [5 (4Aδ)] | 45 | 95 | –
CCc1ccc2nc3c(c(-c4ccccc4)c2c1)Cn1c-3cc(C(O)CCC2CCCCC2)c(C)c1=O (stereo not drawn) [Compound 7.8.5] | – | – | % inhibition of RNase H at 20 μM [2]: 65%
CCC(C)C(O)c1cc2n(c(=O)c1C)Cc1c-2nc2ccc(C(F)(F)F)cc2c1-c1ccccc1 (stereo not drawn) [Compound 4.8.4] | – | – | % inhibition of RNase H at 20 μM [2]: 74%
CCCCc1c2c(nc3ccc(OC)cc13)-c1cc(C(O)CCC)c(C)c(=O)n1C2 (stereo not drawn) [Compound 2.6.3] | – | – | % inhibition of RNase H at 20 μM [2]: 67%
CCc1c2c(nc3ccc(C(F)(F)F)cc13)-c1cc(C(O)C3CCCCC3)c(C)c(=O)n1C2 (stereo not drawn) [Compound 6.4.4] | – | – | % inhibition of RNase H at 20 μM [2]: 65%
